# Experimental data taken from ChEMBL document CHEMBL1132896, “Beta-casomorphins: substitution of phenylalanine with beta-homo phenylalanine increases the mu-type opioid receptor affinity” (Bioorg Med Chem Lett, 2000).
# Non-standard residues stand in square brackets, D forms with d. Residues, ends and D or L forms follow the SMILES beside them. β3hF = N[C@H](CC(=O)O)Cc1ccccc1
# Key:
# Mu-type opioid receptor [1] = target: T1, Mu-type opioid receptor (Rattus norvegicus, UniProt P33535); test: Inhibitory concentration against [3H]DAMGO binding to Opioid receptor mu 1 in rat brain membrane; format: cell membranes
# Mu-type opioid receptor [2] = target: T1, Mu-type opioid receptor; test: Compound was evaluated for the binding affinity of Opioid receptor mu 1 by displacing the radioligand [3H]DAMGO from rat brain membrane
# T1 sequence (P33535 whole entry): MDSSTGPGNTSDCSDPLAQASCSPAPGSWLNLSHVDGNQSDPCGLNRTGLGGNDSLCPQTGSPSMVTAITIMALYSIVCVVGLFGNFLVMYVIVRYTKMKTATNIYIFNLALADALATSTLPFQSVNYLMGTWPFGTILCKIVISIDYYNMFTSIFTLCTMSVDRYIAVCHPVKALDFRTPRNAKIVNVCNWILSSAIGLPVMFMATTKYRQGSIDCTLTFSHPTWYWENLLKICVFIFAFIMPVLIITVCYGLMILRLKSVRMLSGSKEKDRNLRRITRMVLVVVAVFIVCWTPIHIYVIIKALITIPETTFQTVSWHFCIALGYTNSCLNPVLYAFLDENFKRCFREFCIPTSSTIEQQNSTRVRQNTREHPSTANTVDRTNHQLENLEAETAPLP
SMILES,IC50 (Mu-type opioid receptor [1]),Ki (Mu-type opioid receptor [2])
N[C@@H](Cc1ccc(O)cc1)C(=O)N1CCC[C@H]1C(=O)N[C@@H](Cc1ccccc1)C(=O)N1CCC[C@H]1C(=O)NCC(=O)O (H-YPFPG-OH),4.5 µM,1.62 µM
CC[C@H](C)[C@H](NC(=O)[C@@H]1CCCN1C(=O)CNC(=O)[C@@H]1CCCN1C(=O)[C@H](Cc1ccccc1)NC(=O)[C@@H]1CCCN1C(=O)[C@@H](N)Cc1ccc(O)cc1)C(=O)O (H-YPFPGPI-OH),20 µM,7.54 µM
N[C@@H](Cc1ccc(O)cc1)C(=O)N1CCC[C@H]1C(=O)N[C@H](CC(=O)N1CCC[C@H]1C(=O)NCC(=O)O)Cc1ccccc1 (H-YP[β3hF]PG-OH),2 µM,0.72 µM
CC[C@H](C)[C@H](NC(=O)[C@@H]1CCCN1C(=O)CNC(=O)[C@@H]1CCCN1C(=O)C[C@H](Cc1ccccc1)NC(=O)[C@@H]1CCCN1C(=O)[C@@H](N)Cc1ccc(O)cc1)C(=O)O (H-YP[β3hF]PGPI-OH),4 µM,1.44 µM
